For orientation: inhibition in vivo means the relative decrease from the control value, in per cent.

The values below come from ChEMBL document CHEMBL1154104, “S- and C-nucleosidoquinazoline as new nucleoside analogs with potential analgesic and anti-inflammatory activity” (Eur J Med Chem, 2009).

The first data set has as its system Rattus norvegicus. The data set can be described thus: Gastrointestinal toxicity in Wistar rat assessed as ulcerogenic induces at 200 mg/kg, po after 17 hrs. Also on record: dose 200 mg/kg, route oral. As to conditions: in vivo. The format is organism-based.
Turning to `CC1(C)CC(=O)C2=C(C1)N=C1NN=C([C@@H](O)[C@@H](O)[C@H](O)[C@H](O)CO)N1C2c1ccc(Cl)cc1` (some centres undefined), the UI is reported as 0.6.

For the compound `CC(C)Cc1ccc(C(C)C(=O)O)cc1` (centres undefined) [IBUPROFEN], the UI came to 1.8.

Consider `CC1(C)CC(=O)C2=C(C1)N=C1NN=C([C@@H](O)[C@@H](O)[C@H](O)CO)N1C2c1ccc(Cl)cc1` (some centres undefined), for which the UI is reported as 0.5.

For `CC1(C)CC(=O)C2=C(C1)N=C1NN=C([C@H](O)[C@@H](O)[C@@H](O)[C@H](O)CO)N1C2c1ccc(Cl)cc1` (some centres undefined), the UI was found to be 0.8.

As to `CC1(C)CC(=O)C2=C(C1)N=C1NN=C([C@@H](O)[C@H](O)[C@H](O)CO)N1C2c1ccc(Cl)cc1` (some centres undefined), the UI came to 0.5.

As to `CC1(C)CC(=O)C2=C(C1)N=C1NN=C([C@H](O)[C@@H](O)[C@H](O)[C@H](O)CO)N1C2c1ccc(Cl)cc1` (some centres undefined), the UI amounted to 0.5.

Regarding `CC1(C)CC(=O)C2=C(C1)N=C1NN=C([C@H](O)[C@@H](O)[C@H](O)CO)N1C2c1ccc(Cl)cc1` (some centres undefined), the UI was found to be 0.6.

The test system of another data set is Mus musculus. Kind of data set: Analgesic activity in Swiss albino mouse assessed as inhibition of acetic acid-induced writhing response at 70 mg/kg, po pretreated 1 hr before acetic acid challenge.
Details: not given
The format is functional. For orientation: An intraperitoneal irritant provokes the stretching counted in writhing tests.
For the compound `CC1(C)CC(=O)C2=C(C1)N=C1NN=C([C@@H](O)[C@@H](O)[C@H](O)[C@H](O)CO)N1C2c1ccc(Cl)cc1` (some centres undefined), the inhibition in vivo at 70 mg/kg stood at 57%.

Regarding `CC(C)Cc1ccc(C(C)C(=O)O)cc1` (centres undefined) [IBUPROFEN], the inhibition in vivo at 70 mg/kg is 83.5%.

Regarding `CC1(C)CC(=O)C2=C(C1)N=C1NN=C([C@@H](O)[C@@H](O)[C@H](O)CO)N1C2c1ccc(Cl)cc1` (some centres undefined), the inhibition in vivo at 70 mg/kg came to 56.6%.

`CC1(C)CC(=O)C2=C(C1)N=C1NN=C([C@H](O)[C@@H](O)[C@@H](O)[C@H](O)CO)N1C2c1ccc(Cl)cc1` (some centres undefined): the inhibition in vivo at 70 mg/kg came to 59%.

On to `CC1(C)CC(=O)C2=C(C1)N=C1NN=C([C@@H](O)[C@H](O)[C@H](O)CO)N1C2c1ccc(Cl)cc1` (some centres undefined), for which the inhibition in vivo at 70 mg/kg was found to be 59.5%.

Take `CC1(C)CC(=O)C2=C(C1)N=C1NN=C([C@H](O)[C@@H](O)[C@H](O)[C@H](O)CO)N1C2c1ccc(Cl)cc1` (some centres undefined): the inhibition in vivo at 70 mg/kg came to 73%.

Take `CC1(C)CC(=O)C2=C(C1)N=C1NN=C([C@H](O)[C@@H](O)[C@H](O)CO)N1C2c1ccc(Cl)cc1` (some centres undefined): the inhibition in vivo at 70 mg/kg was 71%.

For the next data set, the system named is Rattus norvegicus. Kind of data set: Antiinflammatory activity against carrageenan-induced paw edema in Sprague-Dawley rat at 70 mg/kg, po pretreated 1 hr before carrageenan challenge measured after 4 hrs by plethysmometer. The format is functional.
Details: not given
(In general: Carrageenan injected into the paw causes an acute inflammation.)
As to `CC1(C)CC(=O)C2=C(C1)N=C1NN=C(c3ccc(Cl)cc3)N1C2c1ccc(Cl)cc1` (centres undefined), the inhibition in vivo at 70 mg/kg worked out at 68%.

Take `CC1(C)CC(=O)C2=C(C1)N=C(NN)NC2c1ccc(Cl)cc1` (centres undefined): the inhibition in vivo at 70 mg/kg was found to be 71%.

Consider `COc1ccc(C2NC(=S)NC3=C2C(=O)CC(C)(C)C3)cc1` (centres undefined), for which the inhibition in vivo at 70 mg/kg came to 71%.

In the case of `CC1(C)CC(=O)C2=C(C1)N=C1NN=C([C@@H](O)[C@@H](O)[C@H](O)[C@H](O)CO)N1C2c1ccc(Cl)cc1` (some centres undefined), the inhibition in vivo at 70 mg/kg came out at 82%.

As to `CC(=O)OC[C@H]1O[C@@H](SC2=NC3=C(C(=O)CC(C)(C)C3)C(c3ccc(Cl)cc3)N2)[C@H](OC(C)=O)[C@@H](OC(C)=O)[C@H]1OC(C)=O` (some centres undefined), the inhibition in vivo at 70 mg/kg worked out at 76%.

On to `CC(=O)OC[C@H]1O[C@@H](SC2=NC3=C(C(=O)CC(C)(C)C3)C(c3ccc(Cl)cc3)N2)[C@H](OC(C)=O)[C@@H](OC(C)=O)[C@@H]1OC(C)=O` (some centres undefined), for which the inhibition in vivo at 70 mg/kg was determined as 75%.

As to `CC(C)Cc1ccc(C(C)C(=O)O)cc1` (centres undefined) [IBUPROFEN], the inhibition in vivo at 70 mg/kg amounted to 92%.

Regarding `CC1(C)CC(=O)C2=C(C1)N=C1NN=C([C@@H](O)[C@@H](O)[C@H](O)CO)N1C2c1ccc(Cl)cc1` (some centres undefined), the inhibition in vivo at 70 mg/kg turned out to be 82%.

Consider `CC1(C)CC(=O)C2=C(C1)NC(=S)NC2c1ccccc1` (centres undefined), for which the inhibition in vivo at 70 mg/kg came out at 50%.

For `CC(=O)OC[C@H]1O[C@@H](SC2=NC3=C(C(=O)CC(C)(C)C3)C(c3ccc(Cl)cc3)N2)[C@H](OC(C)=O)[C@@H]1OC(C)=O` (some centres undefined), the inhibition in vivo at 70 mg/kg was 76%.

As for `CC1(C)CC(=O)C2=C(C1)N=C1NN=C([C@H](O)[C@@H](O)[C@@H](O)[C@H](O)CO)N1C2c1ccc(Cl)cc1` (some centres undefined), the inhibition in vivo at 70 mg/kg came to 85%.

For `CC1(C)CC(=O)C2=C(C1)NC(=S)NC2c1ccc(Cl)cc1` (centres undefined), the inhibition in vivo at 70 mg/kg came to 69%.

`CC1(C)CC(=O)C2=C(C1)N=C1NN=C([C@@H](O)[C@H](O)[C@H](O)CO)N1C2c1ccc(Cl)cc1` (some centres undefined): the inhibition in vivo at 70 mg/kg was determined as 84%.

For `CC1(C)CC(=O)C2=C(C1)N=C1NN=C([C@H](O)[C@@H](O)[C@H](O)[C@H](O)CO)N1C2c1ccc(Cl)cc1` (some centres undefined), the inhibition in vivo at 70 mg/kg came out at 86%.

Turning to `CC1(C)CC(=O)C2=C(C1)N=C1NN=C([C@H](O)[C@@H](O)[C@H](O)CO)N1C2c1ccc(Cl)cc1` (some centres undefined), the inhibition in vivo at 70 mg/kg was determined as 82%.
